From patent US6914045B2, “Glycopeptide antibiotics” (Wyeth Holdings Corporation, priority 2001, dated 2005)
Values after ≈ are worked out from the molar mass of the structure shown.

Experiments:
Assay in all cases: in vitro antibacterial evaluation, MIC by broth dilution
Format in all cases: cell-based
[1] = test system: Streptococcus sp.; conditions: broth dilution, 18 hours at 35° C.
Summary of the method: (§1)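 MIC = lowest antibiotic concentration preventing visible growth; inoculum 5×10^5 CFU/mL; drug range 64-0.06 μg/mL; Muller-Hinton II […]; NCCLS M7-A2 guidance.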

[2] = test system: Enterococcus sp.; conditions: broth dilution, 18 hours at 35° C.
Summary of the method: as §1

[3] = test system: Staphylococcus sp.; conditions: broth dilution, 18 hours at 35° C.
Summary of the method: as §1

[4] = test system: Escherichia coli; conditions: 18 hours at 35° C.

CC(c1ccccc1)C1NC(=O)CNC(=O)C(CO)NC(=O)C(C(O)C2CNC(=N)N2C2OC(CO)C(O)C(O)C2O)NC(=O)C(C(O)C2CNC(=N)N2)NC(=O)C(Cc2ccc(OC3OC(CO)C(OC4OC5COC6(CC7CCC6(C)C7(C)C)OC5C(O)C4O)C(O)C3O)cc2)NC1=O (stereo not drawn) [Example 214]
MIC Streptococcus agalactiae (GC 4564) [1]: <0.12 µg/mL
MIC Streptococcus pneumoniae (ATCC 6301) [1]: <0.12 µg/mL
MIC Streptococcus pneumoniae (GC 1894) [1]: <0.12 µg/mL
MIC Streptococcus pneumoniae (GC 4565) [1]: <0.12 µg/mL
MIC Streptococcus pyogenes (GC 4563) [1]: <0.12 µg/mL
MIC Streptococcus pneumoniae (ATCC 6301) ([1]; inoculum 5×10^5 CFU/mL, strain ATCC 6301): <0.12 µg/mL
MIC Streptococcus pneumoniae (GC 1894) ([1]; inoculum 5×10^5 CFU/mL, strain GC 1894): <0.12 µg/mL
MIC Streptococcus pyogenes (GC 4563) ([1]; inoculum 5×10^5 CFU/mL, strain GC 4563): <0.12 µg/mL
MIC Streptococcus agalactiae (GC 4564) ([1]; inoculum 5×10^5 CFU/mL, strain GC 4564): <0.12 µg/mL
MIC Streptococcus pneumoniae (GC 4565) ([1]; inoculum 5×10^5 CFU/mL, strain GC 4565): <0.12 µg/mL
MIC Enterococcus avium (GC 4558) [2]: 2 µg/mL (≈ 1.4 µM)
MIC Enterococcus faecalis (ATCC 29212) [2]: 2 µg/mL (≈ 1.4 µM)
MIC Enterococcus faecalis (GC 2242) [2]: 2 µg/mL (≈ 1.4 µM)
MIC Enterococcus faecalis (GC 2691) [2]: 2 µg/mL (≈ 1.4 µM)
MIC Enterococcus faecalis (GC 3059) [2]: 2 µg/mL (≈ 1.4 µM)
MIC Enterococcus faecalis (GC 4552) [2]: 2 µg/mL (≈ 1.4 µM)
MIC Enterococcus faecalis (GC 4553) [2]: 2 µg/mL (≈ 1.4 µM)
MIC Enterococcus faecalis (GC 4554) [2]: 2 µg/mL (≈ 1.4 µM)
MIC Enterococcus faecalis (GC 6189) [2]: 2 µg/mL (≈ 1.4 µM)
MIC Enterococcus faecium (GC 2243) [2]: 1 µg/mL (≈ 0.7 µM)
MIC Enterococcus faecium (GC 4556) [2]: 2 µg/mL (≈ 1.4 µM)
MIC Enterococcus faecium (GC 4557) [2]: 2 µg/mL (≈ 1.4 µM)
MIC Enterococcus faecalis (ATCC 29212) ([2]; inoculum 5×10^5 CFU/mL, strain ATCC 29212): 2 µg/mL (≈ 1.4 µM)
MIC Enterococcus faecalis (GC 2242) ([2]; inoculum 5×10^5 CFU/mL, strain GC 2242): 2 µg/mL (≈ 1.4 µM)
MIC Enterococcus faecium (GC 2243) ([2]; inoculum 5×10^5 CFU/mL, strain GC 2243): 1 µg/mL (≈ 0.7 µM)
MIC Enterococcus faecalis (GC 2691) ([2]; inoculum 5×10^5 CFU/mL, strain GC 2691): 2 µg/mL (≈ 1.4 µM)
MIC Enterococcus faecalis (GC 3059) ([2]; inoculum 5×10^5 CFU/mL, strain GC 3059): 2 µg/mL (≈ 1.4 µM)
MIC Enterococcus faecalis (GC 4552) ([2]; inoculum 5×10^5 CFU/mL, strain GC 4552): 2 µg/mL (≈ 1.4 µM)
MIC Enterococcus faecalis (GC 4553) ([2]; inoculum 5×10^5 CFU/mL, strain GC 4553): 2 µg/mL (≈ 1.4 µM)
MIC Enterococcus faecalis (GC 4554) ([2]; inoculum 5×10^5 CFU/mL, strain GC 4554): 2 µg/mL (≈ 1.4 µM)
MIC Enterococcus faecium (GC 4556) ([2]; inoculum 5×10^5 CFU/mL, strain GC 4556): 2 µg/mL (≈ 1.4 µM)
MIC Enterococcus faecium (GC 4557) ([2]; inoculum 5×10^5 CFU/mL, strain GC 4557): 2 µg/mL (≈ 1.4 µM)
MIC Enterococcus avium (GC 4558) ([2]; inoculum 5×10^5 CFU/mL, strain GC 4558): 2 µg/mL (≈ 1.4 µM)
MIC Enterococcus faecalis (GC 6189) ([2]; inoculum 5×10^5 CFU/mL, strain GC 6189): 2 µg/mL (≈ 1.4 µM)
MIC Staphylococcus aureus (ATCC 29213) ([3]; strain ATCC 29213): 2 µg/mL (≈ 1.4 µM)
MIC Staphylococcus aureus (GC 1131) ([3]; strain GC 1131): 1 µg/mL (≈ 0.7 µM)
MIC Staphylococcus aureus (GC 3051) ([3]; strain GC 3051): 32 µg/mL (≈ 22.4 µM)
MIC Staphylococcus aureus (GC 3053) ([3]; strain GC 3053): 2 µg/mL (≈ 1.4 µM)
MIC Staphylococcus aureus (GC 4541) ([3]; strain GC 4541): 2 µg/mL (≈ 1.4 µM)
MIC Staphylococcus aureus (GC 4542) ([3]; strain GC 4542): 1 µg/mL (≈ 0.7 µM)
MIC Staphylococcus aureus-SMITH (GC 4543) ([3]; strain GC 4543): 0.5 µg/mL (≈ 0.35 µM)
MIC Staphylococcus aureus (GC 4544) ([3]; strain GC 4544): 1 µg/mL (≈ 0.7 µM)
MIC Staphylococcus aureus (GC 4545) ([3]; strain GC 4545): 2 µg/mL (≈ 1.4 µM)
MIC Staphylococcus haemolyticus (GC 4546) ([3]; strain GC 4546): 1 µg/mL (≈ 0.7 µM)
MIC Coagulase Negative Staphylococcus (GC 4547) ([3]; strain GC 4547): 1 µg/mL (≈ 0.7 µM)
MIC Coagulase Negative Staphylococcus (GC 4548) ([3]; strain GC 4548): 1 µg/mL (≈ 0.7 µM)
MIC Coagulase Negative Staphylococcus (GC 4549) ([3]; strain GC 4549): 0.5 µg/mL (≈ 0.35 µM)
MIC Coagulase Negative Staphylococcus (GC 4551) ([3]; strain GC 4551): 1 µg/mL (≈ 0.7 µM)
MIC Escherichia coli (ATCC 25922) [4]: 64 µg/mL (≈ 44.8 µM)
MIC Escherichia coli (GC 4559) [4]: 64 µg/mL (≈ 44.8 µM)
MIC Escherichia coli (GC 4560) [4]: 2 µg/mL (≈ 1.4 µM)
